Experimental data reported in the supplement of paper PMC12463676, “Small-molecule dissolution of stress granules by redox modulation benefits ALS models” (Nature Chemical Biology, 2025).

Experiments:
lipoamide = compound: NC(=O)CCCCC1CCSS1 [lipoamide]; experiment: thermal stability z-score vs DMSO; higher = more thermally stabilized by treatment; conditions: HeLa, lipoamide concentration 100 µM
Experimental: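 Cellular thermal proteome profiling in HeLa cells. Cells were treated with 100 µM lipoamide for 1 h, with or without 1 mM arsenate for a further 1 h, then heated to ten temperatures (37-66.3 °C), and soluble protein was quantified by TMT mass spectrometry relative to 0.1% DMSO controls. The thermal stability score (sum of log2 fold changes minus the abundance score) was transformed to a z-score; mean of n = 3 experiments.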

potassium arsenate = compound: O=[As]([O-])(O)O.[K+] [potassium arsenate]; experiment: as above; conditions: HeLa; arsenate concentration 1 mM
Experimental: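 Cellular thermal proteome profiling in HeLa cells treated with 1 mM arsenate for 1 h (DMSO pretreatment), heated to ten temperatures (37-66.3 °C). Soluble protein was quantified by TMT mass spectrometry relative to DMSO controls; the thermal stability score was transformed to a z-score; mean of n = 3 experiments.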

[1] = arsenate co-treatment: 1 mM arsenate 1 h
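Also: each temperature applied for 3 min, abundance score taken as mean log2 fold change at the two lowest temperatures, z-score obtained by mean subtraction and division by SD.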

Sequence of UniProt Q14152 (Q14152 whole entry): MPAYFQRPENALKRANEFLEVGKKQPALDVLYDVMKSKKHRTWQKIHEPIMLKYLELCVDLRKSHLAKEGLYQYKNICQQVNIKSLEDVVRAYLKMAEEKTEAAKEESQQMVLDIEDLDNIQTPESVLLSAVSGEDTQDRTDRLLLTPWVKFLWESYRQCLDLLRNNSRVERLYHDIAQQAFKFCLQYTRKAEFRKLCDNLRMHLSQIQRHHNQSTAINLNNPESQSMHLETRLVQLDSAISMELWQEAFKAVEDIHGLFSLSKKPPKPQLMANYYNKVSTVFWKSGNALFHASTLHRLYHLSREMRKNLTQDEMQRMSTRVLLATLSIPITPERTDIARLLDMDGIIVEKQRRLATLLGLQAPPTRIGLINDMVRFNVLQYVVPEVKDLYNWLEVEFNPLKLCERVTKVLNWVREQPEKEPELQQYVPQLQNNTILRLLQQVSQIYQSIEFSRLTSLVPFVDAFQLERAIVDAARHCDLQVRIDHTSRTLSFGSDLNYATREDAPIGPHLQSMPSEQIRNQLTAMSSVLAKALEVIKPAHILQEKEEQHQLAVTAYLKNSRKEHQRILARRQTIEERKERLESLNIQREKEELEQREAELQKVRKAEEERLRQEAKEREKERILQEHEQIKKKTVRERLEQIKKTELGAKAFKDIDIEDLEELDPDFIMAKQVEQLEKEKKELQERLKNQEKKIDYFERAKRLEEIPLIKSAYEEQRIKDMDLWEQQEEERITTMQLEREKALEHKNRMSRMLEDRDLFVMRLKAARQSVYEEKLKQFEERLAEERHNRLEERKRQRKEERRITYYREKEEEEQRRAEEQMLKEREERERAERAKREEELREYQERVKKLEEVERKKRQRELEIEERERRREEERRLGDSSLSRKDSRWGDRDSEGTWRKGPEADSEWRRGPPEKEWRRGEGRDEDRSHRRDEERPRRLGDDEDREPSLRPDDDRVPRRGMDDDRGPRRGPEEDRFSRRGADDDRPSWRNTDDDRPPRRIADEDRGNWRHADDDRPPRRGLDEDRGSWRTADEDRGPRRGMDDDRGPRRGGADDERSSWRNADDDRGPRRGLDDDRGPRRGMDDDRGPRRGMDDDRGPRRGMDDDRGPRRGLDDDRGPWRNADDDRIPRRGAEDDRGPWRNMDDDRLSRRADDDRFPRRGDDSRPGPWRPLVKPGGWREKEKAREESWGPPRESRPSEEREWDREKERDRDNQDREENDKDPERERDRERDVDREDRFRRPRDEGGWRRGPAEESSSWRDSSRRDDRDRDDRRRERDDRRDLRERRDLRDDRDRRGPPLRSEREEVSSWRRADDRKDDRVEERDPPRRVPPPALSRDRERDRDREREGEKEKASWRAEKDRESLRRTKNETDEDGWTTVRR
Sequence of UniProt Q8N9N8 (Q8N9N8 whole entry): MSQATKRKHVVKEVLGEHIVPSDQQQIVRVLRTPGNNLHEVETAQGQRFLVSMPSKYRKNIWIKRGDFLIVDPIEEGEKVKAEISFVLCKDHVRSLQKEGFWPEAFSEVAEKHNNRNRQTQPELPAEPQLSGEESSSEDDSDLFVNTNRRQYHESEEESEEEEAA
Sequence of UniProt O43432 (O43432 whole entry): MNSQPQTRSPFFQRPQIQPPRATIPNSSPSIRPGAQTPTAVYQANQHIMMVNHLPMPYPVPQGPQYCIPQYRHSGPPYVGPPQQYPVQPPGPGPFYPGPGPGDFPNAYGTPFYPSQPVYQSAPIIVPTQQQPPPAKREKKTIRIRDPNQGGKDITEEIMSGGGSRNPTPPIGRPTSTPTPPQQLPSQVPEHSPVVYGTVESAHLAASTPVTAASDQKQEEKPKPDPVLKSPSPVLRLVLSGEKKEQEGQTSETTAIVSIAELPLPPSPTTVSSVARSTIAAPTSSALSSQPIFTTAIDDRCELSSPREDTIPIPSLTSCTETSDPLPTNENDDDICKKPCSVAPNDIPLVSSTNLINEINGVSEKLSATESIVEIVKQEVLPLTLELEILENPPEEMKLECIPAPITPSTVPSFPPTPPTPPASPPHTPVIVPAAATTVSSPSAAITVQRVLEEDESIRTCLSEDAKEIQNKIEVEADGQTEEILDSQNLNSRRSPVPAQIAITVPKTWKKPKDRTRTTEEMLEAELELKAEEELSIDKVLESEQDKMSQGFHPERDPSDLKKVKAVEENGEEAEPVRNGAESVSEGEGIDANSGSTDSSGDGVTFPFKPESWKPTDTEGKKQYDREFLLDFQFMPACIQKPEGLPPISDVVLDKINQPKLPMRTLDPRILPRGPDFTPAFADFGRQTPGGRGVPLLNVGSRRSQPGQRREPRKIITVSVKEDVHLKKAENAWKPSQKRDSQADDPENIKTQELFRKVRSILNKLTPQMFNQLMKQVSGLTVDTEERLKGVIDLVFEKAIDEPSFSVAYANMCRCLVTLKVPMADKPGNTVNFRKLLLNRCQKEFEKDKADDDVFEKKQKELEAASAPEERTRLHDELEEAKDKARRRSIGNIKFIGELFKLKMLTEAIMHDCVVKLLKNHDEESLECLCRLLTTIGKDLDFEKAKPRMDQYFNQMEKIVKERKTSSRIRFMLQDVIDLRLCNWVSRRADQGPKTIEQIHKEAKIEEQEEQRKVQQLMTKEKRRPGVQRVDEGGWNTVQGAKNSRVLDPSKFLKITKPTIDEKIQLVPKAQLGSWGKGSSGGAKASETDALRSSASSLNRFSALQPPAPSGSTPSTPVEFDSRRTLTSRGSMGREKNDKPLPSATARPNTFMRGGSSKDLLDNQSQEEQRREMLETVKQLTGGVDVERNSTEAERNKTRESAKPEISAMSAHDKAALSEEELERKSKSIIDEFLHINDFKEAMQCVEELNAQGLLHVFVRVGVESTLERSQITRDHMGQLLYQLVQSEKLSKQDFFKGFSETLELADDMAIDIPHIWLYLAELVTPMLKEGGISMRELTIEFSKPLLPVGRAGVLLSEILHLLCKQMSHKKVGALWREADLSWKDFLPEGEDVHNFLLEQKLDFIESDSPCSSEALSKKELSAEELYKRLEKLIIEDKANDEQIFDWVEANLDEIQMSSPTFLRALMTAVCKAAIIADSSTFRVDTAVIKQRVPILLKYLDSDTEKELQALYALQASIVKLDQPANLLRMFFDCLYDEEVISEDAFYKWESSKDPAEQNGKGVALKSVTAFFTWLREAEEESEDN
Sequence of UniProt Q8N766 (Q8N766 whole entry): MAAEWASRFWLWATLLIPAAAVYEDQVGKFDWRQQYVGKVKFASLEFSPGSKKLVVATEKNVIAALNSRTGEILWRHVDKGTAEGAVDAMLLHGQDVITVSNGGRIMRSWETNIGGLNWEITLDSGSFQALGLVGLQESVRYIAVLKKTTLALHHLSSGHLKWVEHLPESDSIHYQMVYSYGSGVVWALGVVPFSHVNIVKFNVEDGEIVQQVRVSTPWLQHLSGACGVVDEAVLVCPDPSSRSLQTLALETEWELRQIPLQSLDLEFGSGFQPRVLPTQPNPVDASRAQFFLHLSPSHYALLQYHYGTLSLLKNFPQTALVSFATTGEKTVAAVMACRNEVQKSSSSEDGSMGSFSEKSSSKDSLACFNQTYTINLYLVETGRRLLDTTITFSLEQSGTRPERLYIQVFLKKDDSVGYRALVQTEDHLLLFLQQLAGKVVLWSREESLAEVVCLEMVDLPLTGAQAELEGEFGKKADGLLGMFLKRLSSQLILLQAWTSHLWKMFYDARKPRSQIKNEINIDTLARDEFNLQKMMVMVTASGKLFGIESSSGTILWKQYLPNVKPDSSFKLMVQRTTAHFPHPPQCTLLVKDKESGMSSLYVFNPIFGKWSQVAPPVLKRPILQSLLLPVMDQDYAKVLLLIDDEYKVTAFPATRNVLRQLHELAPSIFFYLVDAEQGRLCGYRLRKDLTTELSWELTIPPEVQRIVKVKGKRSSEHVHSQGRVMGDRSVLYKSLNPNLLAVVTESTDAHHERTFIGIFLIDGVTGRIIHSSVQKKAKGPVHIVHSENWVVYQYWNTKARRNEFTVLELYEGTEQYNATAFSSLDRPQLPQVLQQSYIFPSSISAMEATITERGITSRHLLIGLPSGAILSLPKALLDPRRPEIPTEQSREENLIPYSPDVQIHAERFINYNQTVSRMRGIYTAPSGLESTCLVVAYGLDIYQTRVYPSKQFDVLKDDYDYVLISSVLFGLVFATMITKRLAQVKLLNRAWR
Sequence of UniProt Q14240 (Q14240 whole entry): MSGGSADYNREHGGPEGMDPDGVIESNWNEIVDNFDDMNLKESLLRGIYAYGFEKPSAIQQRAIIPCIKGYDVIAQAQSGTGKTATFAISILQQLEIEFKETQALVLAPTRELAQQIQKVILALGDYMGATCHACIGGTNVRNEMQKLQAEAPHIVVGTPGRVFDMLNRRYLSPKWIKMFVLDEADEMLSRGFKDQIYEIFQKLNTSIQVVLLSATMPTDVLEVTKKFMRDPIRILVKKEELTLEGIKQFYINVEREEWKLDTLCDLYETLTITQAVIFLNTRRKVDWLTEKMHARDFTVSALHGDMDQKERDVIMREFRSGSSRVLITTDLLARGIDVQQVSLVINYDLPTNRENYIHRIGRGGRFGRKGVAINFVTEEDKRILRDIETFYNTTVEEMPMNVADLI
Sequence of UniProt Q9UI10 (Q9UI10 whole entry): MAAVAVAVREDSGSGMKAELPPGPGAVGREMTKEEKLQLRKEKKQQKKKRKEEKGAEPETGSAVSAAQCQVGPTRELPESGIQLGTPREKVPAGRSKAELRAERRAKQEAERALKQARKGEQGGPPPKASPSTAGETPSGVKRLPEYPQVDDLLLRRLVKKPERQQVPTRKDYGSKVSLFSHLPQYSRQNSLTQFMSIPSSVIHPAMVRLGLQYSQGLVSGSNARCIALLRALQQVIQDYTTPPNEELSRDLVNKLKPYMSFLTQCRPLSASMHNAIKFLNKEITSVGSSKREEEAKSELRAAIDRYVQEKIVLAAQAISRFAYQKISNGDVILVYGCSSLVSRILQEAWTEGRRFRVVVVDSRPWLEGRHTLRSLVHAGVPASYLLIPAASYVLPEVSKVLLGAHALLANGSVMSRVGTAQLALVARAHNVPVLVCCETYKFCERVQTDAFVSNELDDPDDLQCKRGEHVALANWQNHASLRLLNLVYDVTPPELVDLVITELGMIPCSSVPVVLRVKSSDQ

Row | Target | thermal stability z-score (lipoamide; [1]) | thermal stability z-score (lipoamide; arsenate co-treatment: none) | thermal stability z-score (potassium arsenate)
1 | EGFR (UniProt P00533) | -1.07 | -0.989 | -1.02
2 | EGLN1 (UniProt Q9GZT9) | 0.176 | 0.423 | 1.64
3 | EHBP1 (UniProt Q8NDI1) | 0.0509 | 0.183 | -0.166
4 | EHBP1L1 (UniProt Q8N3D4) | -0.423 | -0.0281 | -0.3
5 | EHD1 (UniProt Q9H4M9) | -0.0636 | 0.13 | -0.0304
6 | EHD2 (UniProt Q9NZN4) | -0.612 | -0.489 | -0.781
7 | EHD4 (UniProt Q9H223) | 0.435 | 0.326 | -0.477
8 | EHMT2 (UniProt Q96KQ7) | 0.132 | 0.0958 | -0.273
9 | EI24 (UniProt O14681) | 0.221 | -0.249 | -0.123
10 | EIF1 (UniProt P41567) | -0.179 | -0.0958 | -0.193
11 | EIF1AD (UniProt Q8N9N8) | 0.433 | 0.98 | 1.09
12 | EIF1AX (UniProt P47813) | -0.268 | 0.0406 | 0.464
13 | EIF2A (UniProt Q9BY44) | 0.673 | 0.102 | 1.13
14 | EIF2AK1 (UniProt Q9BQI3) | -0.867 | 0.23 | 0.583
15 | EIF2AK2 (UniProt P19525) | -0.0654 | -0.252 | -1.01
16 | EIF2AK3 (UniProt Q9NZJ5) | -0.372 | -0.109 | -0.317
17 | EIF2AK4 (UniProt Q9P2K8) | 0.566 | 0.141 | 2.05
18 | EIF2B1 (UniProt Q14232) | 0.317 | 0.317 | 0.364
19 | EIF2B2 (UniProt P49770) | 1.07 | 0.55 | 0.643
20 | EIF2B3 (UniProt Q9NR50) | -0.44 | 0.0579 | 0.582
21 | EIF2B4 (UniProt Q9UI10) | -0.154 | 0.0556 | 0.533
22 | EIF2B5 (UniProt Q13144) | -0.392 | 0.253 | 0.878
23 | EIF2D (UniProt P41214) | -1.12 | -0.337 | -1.22
24 | EIF2S1 (UniProt P05198) | -0.375 | -0.142 | 0.0905

Row | Target | thermal stability z-score (lipoamide; [1]) | thermal stability z-score (lipoamide; arsenate co-treatment: none) | thermal stability z-score (potassium arsenate)
25 | EIF2S2 (UniProt P20042) | 0.121 | 0.0416 | -0.16
26 | EIF2S3 (UniProt P41091) | 0.159 | -0.567 | 1.34
27 | EIF3A (UniProt Q14152) | 0.713 | 0.446 | 0.432
28 | EIF3B (UniProt P55884) | -0.333 | 0.0629 | 0.472
29 | EIF3C (UniProt Q99613) | -0.304 | 0.183 | 0.498
30 | EIF3D (UniProt O15371) | -0.0633 | 0.0556 | -0.0622
31 | EIF3E (UniProt P60228) | -0.192 | 0.126 | -0.113
32 | EIF3F (UniProt O00303) | -0.117 | -0.0503 | -0.156
33 | EIF3G (UniProt O75821) | 0.0353 | -0.0823 | 0.711
34 | EIF3H (UniProt O15372) | -0.579 | -0.608 | 0.162
35 | EIF3I (UniProt Q13347) | 0.544 | 0.0305 | -0.363
36 | EIF3J (UniProt O75822) | 0.395 | -0.118 | 0.444
37 | EIF3K (UniProt Q9UBQ5) | -0.353 | 0.0198 | 0.00475
38 | EIF3L (UniProt Q9Y262) | 0.23 | 0.373 | -0.297
39 | EIF3M (UniProt Q7L2H7) | 0.136 | -0.372 | 0.304
40 | EIF4A1 (UniProt P60842) | 0.413 | 0.201 | 0.0167
41 | EIF4A2 (UniProt Q14240) | 1.14 | 0.893 | 0.658
42 | EIF4A3 (UniProt P38919) | -0.155 | 0.154 | -0.492
43 | EIF4B (UniProt P23588) | 0.102 | 0.429 | 0.032
44 | EIF4E2 (UniProt O60573) | -0.568 | -0.113 | -1.43
45 | EIF4E (UniProt P06730) | 0.236 | -0.135 | 0.461
46 | EIF4ENIF1 (UniProt Q9NRA8) | -0.03 | 0.00167 | -0.0325
47 | EIF4G1 (UniProt Q04637) | -0.164 | -0.0562 | -0.0263
48 | EIF4G2 (UniProt P78344) | -0.0525 | 0.548 | 0.233

Row | Target | thermal stability z-score (lipoamide; [1]) | thermal stability z-score (lipoamide; arsenate co-treatment: none) | thermal stability z-score (potassium arsenate)
49 | EIF4G3 (UniProt O43432) | -0.341 | 0.15 | 0.0581
50 | EIF4H (UniProt Q15056) | 0.493 | 0.714 | 0.688
51 | EIF5 (UniProt P55010) | 0.0938 | 0.375 | -1.08
52 | EIF5A (UniProt P63241) | -0.138 | 0.0123 | -0.005
53 | EIF5B (UniProt O60841) | -0.519 | -0.31 | 1.42
54 | EIF6 (UniProt P56537) | -0.689 | -0.681 | -2.24
55 | ELAC2 (UniProt Q9BQ52) | -0.243 | -0.21 | -0.274
56 | ELAVL1 (UniProt Q15717) | -0.0114 | 0.173 | -0.765
57 | ELAVL2 (UniProt Q12926) | -0.19 | -0.197 | -0.564
58 | ELF1 (UniProt P32519) | -0.422 | -0.185 | -0.287
59 | ELMO2 (UniProt Q96JJ3) | -0.114 | 0.245 | 0.457
60 | ELMOD2 (UniProt Q8IZ81) | -0.403 | -0.238 | 0.198
61 | ELMSAN1 (UniProt Q6PJG2) | 0.273 | 0.0593 | -0.16
62 | ELOVL1 (UniProt Q9BW60) | -0.883 | -0.778 | 0.652
63 | ELOVL5 (UniProt Q9NYP7) | -0.00466 | -0.551 | 0.0723
64 | ELP2 (UniProt Q6IA86) | 0.0198 | -0.186 | -0.24
65 | ELP3 (UniProt Q9H9T3) | 0.0482 | 0.104 | -0.259
66 | ELP4 (UniProt Q96EB1) | -0.492 | 0.609 | 0.742
67 | ELP5 (UniProt Q8TE02) | -0.313 | -0.364 | 0.489
68 | ELP6 (UniProt Q0PNE2) | 0.56 | -0.141 | 0.998
69 | EMC1 (UniProt Q8N766) | -2.01 | -1.43 | 0.695
70 | EMC2 (UniProt Q15006) | -0.278 | -0.164 | 0.472
71 | EMC3 (UniProt Q9P0I2) | -0.0707 | -0.245 | -0.133
